Results as given in patent US20230295162A1 (EÖTVÖS LORÁND TUDOMÁNYEGYETEM, priority 2020, published 2023).
Read-outs that look alike come from different tables or passages of the source.

How the values were obtained:
[1] = test system: Capan-1 (pancreas, adenocarcinoma) cells; experiment: Cell viability assay, CellTiter-Glo (Example 21); assay type: cell-based, human; details: 72 h treatment
Description: (§1) Effect of the selected compounds on cancer cell viability was measured via CellTiter-Glo® luminescent cell viability assay (Promega, Madison, WI, USA) according to the manufacturer's instructions. Cells were plated onto a flat-bottomed, white 96 well plate (BRANDplates®, cat. no.: 781965). Density of the seeded cells was optimized based on their size and growth rate, as the follows: Panc-1:750 cells/well; DU 145, PC-3, Capan-1, MIA PaCa-2, SCC-25, FaDu and EBC-1: 1000 cells/well; LNCaP, Detroit 562, MDA-MB-231 and MDA-MB-453 1500 cells/well. […] After the treatment, the luminescence signal was recorded using a microplate reader (BioTek Synergy 2 Multi-Mode Reader, BioTek, Winooski, VT, USA). Dose-response curves were generated by GraphPad Prism 8.4.2. software using a non-linear regression model (variable slope, four parameters), (see FIGS. 12-51).

[2] = test system: DU 145 (prostate, carcinoma) cells; experiment: Cell viability assay, CellTiter-Glo (Example 21); assay type: cell-based, human; details: 72 h
Description: as §1

[3] = test system: Detroit 562 (pharynx, carcinoma) cells; experiment: Cell viability assay, CellTiter-Glo (Example 21); assay type: cell-based, human; details: 72 h treatment
Description: as §1

[4] = test system: EBC-1 (lung, squamous cell carcinoma) cells; experiment: Cell viability assay, CellTiter-Glo (Example 21); assay type: cell-based, human; details: 72 h treatment
Description: as §1

[5] = test system: FaDu (pharynx, squamous cell carcinoma) cells; experiment: Cell viability assay, CellTiter-Glo (Example 21); assay type: cell-based, human; details: 72 h treatment
Description: as §1

[6] = test system: LNCaP (prostate, carcinoma) cells; experiment: Cell viability assay, CellTiter-Glo (Example 21); assay type: cell-based, human; details: 72 h
Description: as §1

[7] = test system: MDA-MB-231 (breast, adenocarcinoma) cells; experiment: Cell viability assay, CellTiter-Glo (Example 21); assay type: cell-based, human; details: 72 h treatment
Description: as §1

[8] = test system: MDA-MB-453 (breast, carcinoma) cells; experiment: Cell viability assay, CellTiter-Glo (Example 21); assay type: cell-based, human; details: 72 h treatment
Description: as §1

[9] = test system: MIA PaCa-2 (pancreas, carcinoma) cells; experiment: Cell viability assay, CellTiter-Glo (Example 21); assay type: cell-based, human; details: 72 h treatment
Description: as §1

[10] = test system: PC-3 (prostate, adenocarcinoma) cells; experiment: Cell viability assay, CellTiter-Glo (Example 21); assay type: cell-based, human; details: 72 h treatment
Description: as §1

[11] = test system: Panc-1 (pancreas, carcinoma) cells; experiment: Cell viability assay, CellTiter-Glo (Example 21); assay type: cell-based, human; details: 72 h treatment
Description: as §1

[12] = test system: SCC-25 (tongue, squamous cell carcinoma) cells; experiment: Cell viability assay, CellTiter-Glo (Example 21); assay type: cell-based, human; details: 72 h treatment
Description: as §1

Panc-1 human cell line = experiment: Cytotoxicity on Panc-1, xCELLigence SP, IC50 after 24 h, 48 h, 72 h and 96 h (Example 22)

For `[N-]=[N+]=Nc1cccc(CN2CCC3=C(C2)C(=O)N(Cc2ccc(Cl)cc2)C2=NCCN23)c1` [I/133], the “Capan-1 (pancreas, adenocarcinoma) cell viability (% of control)” value ([1]; 3.7 nM) was 108.3 ± 8.3 % of control, the “Capan-1 (pancreas, adenocarcinoma) cell viability (% of control)” value ([1]; 11.1 nM) was 98.8 ± 7.9 % of control and the “Capan-1 (pancreas, adenocarcinoma) cell viability (% of control)” value ([1]; 100 nM) was 32.6 ± 4.0 % of control. For the same compound, the “Capan-1 (pancreas, adenocarcinoma) cell viability (% of control)” value ([1]; 300 nM) was 34.0 ± 2.8 % of control, the “DU 145 cell viability” value ([2]; 3.7 nM) was 98.8 ± 6.7 % of control and the “DU 145 cell viability” value ([2]; 11.1 nM) was 45.7 ± 4.4 % of control. The “DU 145 cell viability” value ([2]; 100 nM) was 8.0 ± 2.0 % of control, the “DU 145 cell viability” value ([2]; 300 nM) was 8.1 ± 2.6 % of control and the “Detroit 562 (pharynx, carcinoma) cell viability (% of control)” value ([3]; 3.7 nM) was 47.1 ± 16.0 % of control. The “Detroit 562 (pharynx, carcinoma) cell viability (% of control)” value ([3]; 11.1 nM) was 31.1 ± 6.5 % of control, the “Detroit 562 (pharynx, carcinoma) cell viability (% of control)” value ([3]; 100 nM) was 28.8 ± 3.6 % of control and the “Detroit 562 (pharynx, carcinoma) cell viability (% of control)” value ([3]; 300 nM) was 31.3 ± 4.1 % of control. The “EBC-1 (lung, squamous cell carcinoma) cell viability (% of control)” value ([4]; 3.7 nM) was 97.1 ± 6.0 % of control, the “EBC-1 (lung, squamous cell carcinoma) cell viability (% of control)” value ([4]; 11.1 nM) was 60.1 ± 6.7 % of control and the “EBC-1 (lung, squamous cell carcinoma) cell viability (% of control)” value ([4]; 100 nM) was 23.2 ± 0.7 % of control. For the same compound, the “EBC-1 (lung, squamous cell carcinoma) cell viability (% of control)” value ([4]; 300 nM) was 22.2 ± 1.3 % of control, the “FaDu (pharynx, squamous cell carcinoma) cell viability (% of control)” value (shortened to “FaDu … (% of control)”) ([5]; 3.7 nM) was 100.0 ± 6.2 % of control and the “FaDu … (% of control)” value ([5]; 11.1 nM) was 70.7 ± 13.1 % of control. For the same compound, the “FaDu … (% of control)” value ([5]; 100 nM) was 25.3 ± 6.4 % of control, the “FaDu … (% of control)” value ([5]; 300 nM) was 24.6 ± 6.8 % of control and the LNCaP cell viability ([6]; 3.7 nM) was 95.9 ± 6.1 % of control. The LNCaP cell viability ([6]; 11.1 nM) was 33.4 ± 3.1 % of control, the LNCaP cell viability ([6]; 100 nM) was 12.3 ± 1.1 % of control and the LNCaP cell viability ([6]; 300 nM) was 13.3 ± 1.2 % of control. The “MDA-MB-231 (breast, adenocarcinoma) cell viability (% of control)” value ([7]; 3.7 nM) was 101.4 ± 2.0 % of control, the “MDA-MB-231 (breast, adenocarcinoma) cell viability (% of control)” value ([7]; 11.1 nM) was 100.4 ± 2.9 % of control and the “MDA-MB-231 (breast, adenocarcinoma) cell viability (% of control)” value ([7]; 100 nM) was 58.2 ± 2.5 % of control. The “MDA-MB-231 (breast, adenocarcinoma) cell viability (% of control)” value ([7]; 300 nM) was 56.4 ± 3.5 % of control, the “MDA-MB-453 (breast, carcinoma) cell viability (% of control)” value ([8]; 3.7 nM) was 108.6 ± 19.7 % of control and the “MDA-MB-453 (breast, carcinoma) cell viability (% of control)” value ([8]; 11.1 nM) was 50.1 ± 10.6 % of control. The “MDA-MB-453 (breast, carcinoma) cell viability (% of control)” value ([8]; 100 nM) was 31.9 ± 1.3 % of control, the “MDA-MB-453 (breast, carcinoma) cell viability (% of control)” value ([8]; 300 nM) was 31.7 ± 0.5 % of control and the “MIA PaCa-2 (pancreas, carcinoma) cell viability (% of control)” value ([9]; 3.7 nM) was 104.0 ± 17.3 % of control. The “MIA PaCa-2 (pancreas, carcinoma) cell viability (% of control)” value ([9]; 11.1 nM) was 92.1 ± 13.2 % of control, the “MIA PaCa-2 (pancreas, carcinoma) cell viability (% of control)” value ([9]; 100 nM) was 18.4 ± 7.8 % of control and the “MIA PaCa-2 (pancreas, carcinoma) cell viability (% of control)” value ([9]; 300 nM) was 17.4 ± 7.9 % of control. The “PC-3 (prostate, adenocarcinoma) cell viability (% of control)” value ([10]; 3.7 nM) was 105.6 ± 1.8 % of control, the “PC-3 (prostate, adenocarcinoma) cell viability (% of control)” value ([10]; 11.1 nM) was 83.5 ± 6.4 % of control and the “PC-3 (prostate, adenocarcinoma) cell viability (% of control)” value ([10]; 100 nM) was 32.6 ± 3.3 % of control. The “PC-3 (prostate, adenocarcinoma) cell viability (% of control)” value ([10]; 300 nM) was 32.9 ± 4.6 % of control, the “Panc-1 (pancreas, carcinoma) cell viability (% of control)” value ([11]; 3.7 nM) was 108.9 ± 10.2 % of control and the “Panc-1 (pancreas, carcinoma) cell viability (% of control)” value ([11]; 11.1 nM) was 94.1 ± 4.0 % of control. The “Panc-1 (pancreas, carcinoma) cell viability (% of control)” value ([11]; 100 nM) was 56.1 ± 3.7 % of control, the “Panc-1 (pancreas, carcinoma) cell viability (% of control)” value ([11]; 300 nM) was 55.7 ± 2.5 % of control and the “SCC-25 (tongue, squamous cell carcinoma) cell viability (% of control)” value ([12]; 3.7 nM) was 102.3 ± 4.2 % of control. For the same compound, the “SCC-25 (tongue, squamous cell carcinoma) cell viability (% of control)” value ([12]; 11.1 nM) was 72.9 ± 3.0 % of control, the “SCC-25 (tongue, squamous cell carcinoma) cell viability (% of control)” value ([12]; 100 nM) was 34.7 ± 4.9 % of control and the “SCC-25 (tongue, squamous cell carcinoma) cell viability (% of control)” value ([12]; 300 nM) was 40.9 ± 3.7 % of control. For the same compound, the IC50 (Panc-1 human cell line; PANC-1, 72 h, read-out: IC50 (72 h) [nM]) was 9.05 ± 0.669 nM and the IC50 (Panc-1 human cell line; PANC-1, 96 h, read-out: IC50 (96 h) [nM]) was 4.73 ± 0.109 nM.
